Patent US20070191450A1, “Use of Benzo-Heteroaryl Sulfamide Derivatives for the Treatment of Mania and Bipolar Disorder” (priority 2006, published 2007)

Tests used:
dominant rats = test: Dominant-Submissive assay: Reduction of Dominant Behavior Model (RDBM); type: in vivo, rat; settings: for treatment time after which dominant behavior was significantly reduced: historical data, FIG. 2, i.p.: lithium 100 mg/kg, carbamazepine 20 mg/kg, VPA 30 mg/kg
Procedure: Dominance and submissiveness, defined in a competition test and measured as the relative success of two food-restricted rats to gain access to a feeder, form a behavioral paradigm—the Dominant Submissive Relationship (DSR). This paradigm results in two models which are predictive of ability of test compounds (drugs) to treat mood disorders.
Test compounds are evaluated for either their ability to inhibit the dominant behavior of rats taking food at the expense of an opponent (reduction of dominant behavior model or RDBM) and thus their potential as treatments for mania; or for their ability to increase the competitive behavior of submissive rats losing such encounters (reduction of submissive behavior model or RSBM) and thus their potential as treatments for depression; (Malatynska, E., and Knapp, R. J., Neuroscience and Biobehavioral Review, 29 (2005) 715-737).
The Reduction of Dominant Behavior Model (RDBM) test, wherein the dominant animals are treated with test compound, is predictive of the ability of the test compound to treat mani. This model was applied to Compound #1 of the present invention, according to the following procedure.
(§1) Male Sprague Dawley rats (140 to 160 g) from Charles River Laboratories Wilmington, Mass. were used in this assay. Shipments of rats were received at two-week intervals. Each shipment went through five-day quarantine, one-week acclimation period, and one-week selection process, followed by five-weeks of drug or vehicle treatment to those pairs selected.
(§2) Rats were housed four per cage. Access to food was restricted to one hour per day after testing on Monday through Thursday. After testing on Friday, rats had free access to food until being fasted again on Sunday. At no time were the rats deprived of water. The food deprivation periods used had little effect on weight gain as the average weight of rats was about 300 g at the end of the study. At the conclusion of experiment rats were sacrificed by decapitation, the trunk blood and brains were collected for in vitro experiments and drug concentration measurements.
(§3) The basic testing apparatus consisted of two chambers connected with a tunnel only large enough to allow one rat to pass through at a time. On the floor, at the mid-point of the tunnel was a container of sweetened milk. […] During the five-minute daily sessions, time spent in the feeder zone by each rat was recorded by the video tracking software and saved into a text file.
(§4) The test began with a random assignment of rats into pairs. […] The time spent in the feeder zone by each animal was recorded. […] Finally, there must have been no “reversals” during the pair selection week where the putative submissive rat out-scored its dominant partner on isolated occasions. […]

[1] = system: hippocampal kindled seizures; test: Rat Hippocampal Kindling Model (Interruption of Kindled State); type: in vivo; settings: for ED50: Rattus norvegicus, ip, read-out: ED50 = median therapeutic dose; for After-Discharge Duration (% of control) / Mean Seizure Score: i.p., line of the ED50 dose; for effect on seizure activity: reference drugs
Procedure: In the present rapid hippocampal kindling model adult male Sprague-Dawley rats (300-400 g) were surgically implanted with bipolar electrodes placed in the hippocampus. […] One week later, the rats received 2-3 supra-threshold stimulations delivered every 30 min before compound treatment to ensure stability of the behavioral seizure stage and after-discharge duration. Fifteen minutes after the last stimulation, a single dose of vehicle or test compound was administered i.p (intraperitoneally). After 15 min, each rat was then stimulated every 30 min for 3 to 4 h. After each stimulation, individual seizure scores and after-discharge durations were recorded. The group mean±SEM were calculated for each parameter. Eight rats per dose and a minimum of four doses were used to establish an ED50 value. Efficacy was measured as the ability of a compound to modify the seizure score (severity of spread) and after-discharge duration (ADD; excitability) of the generalized seizures.
Thus, according to the theories presented in current literature (Ghaemi, S. N., Boiman, E. E., and Goodwin, F. K., Soc. of Bio. Psychiatry, (1999), vol. 45, pp 137-144; Stoll, A. L., and Severus, W. E., Harvard Rev. Psychiatry, July/August (1996), Vol. 4, No. 2, pp 77-89) a decrease in seizure score and/or ADD may also be predictive of the ability of a test compound to treat the cycling associated with bipolar disorder.

[2] = Median toxic dose (TD50), i.p., listed with the Rat Hippocampal Kindling Test; settings: Sprague-Dawley, in vivo, ip, Table 4 dose column
[3] = system: hippocampal kindled seizures; settings: background statement; cited from earlier work
[4] = system: LTG-resistant amygdala kindled seizures; settings: 5 mg/kg, i.p., q.d.; cited from earlier work
[5] = system: amygdala kindled seizures; settings: i.p., cited from earlier work
submissive rats = test: Dominant-Submissive assay: Reduction of Submissive Behavior Model (RSBM); type: in vivo, rat
Procedure: The Reduction of Submissive Behavior Model (RSBM) test, wherein the submissive animals are treated with test compound, is predictive of the ability of the test compound to treat depression. This model was applied to Compound #1 of the present invention, according to the following procedure.
as §1, §2, §3, §4
Significant differences between time spent on the feeder by dominant and submissive rats were determined by ANOVA using GraphPad Prism software (GraphPad Software, Inc. San Diego, Calif.) followed by a two-tailed t-test (P<0.05). […]

[6] = system: amygdala kindled seizures; test: Amygdala Kindling Assay (Kindling Prevention); type: in vivo, rat
[7] = system: LTG-resistant amygdala kindled seizures; test: Lamotrigine Resistant Amygdala Kindled Rat Model (Interruption of Kindled State); type: in vivo; settings: 100 mg/kg, i.p.
Procedure: Amygdala kindling is less severe than hippocampal kindling, such that many AEDs are effective against amygdala kindled seizures, but are ineffective against hippocampal kindled seizures.
In the LTG-resistant amygdala kindling model, rats were dosed with LTG (5 mg/kg, i.p., q.d.) during the acquisition phase of kindling. […] Once kindled (supra-threshold stimulation of 150 μA biphasic 60 Hz current pulse for 1 second; ˜2 weeks), rats were re-challenged with a high dose of LTG (45 mg/kg, i.p.) one week later to insure resistance. After a 3-4 day wash out period, rats received 2-3 supra-threshold stimulations delivered every 30 min before compound treatment to ensure stability of the behavioral seizure stage and after-discharge duration. Fifteen minutes after the last stimulation, a single dose of vehicle or test compound was administered i.p. After 15 min, each rat was then stimulated every 30 min for 3 to 4 h. After each stimulation, individual seizure scores and after-discharge durations were recorded. The group mean±SEM was calculated for each parameter.

Compound | ED50 [1] | After-Discharge Duration (% of control) [1] | Mean Seizure Score [1] | effect on seizure activity [1] | TD50 [2] | other results
NC(=O)N1c2ccccc2C=Cc2ccccc21 [Carbamazepine, carbamazepine] | 50 mg/kg | 72 ± 13% of control | 2.3 ± 0.6 | suppressed seizure activity, but at doses associated with toxicity | 26 mg/kg | treatment time after which dominant behavior was significantly reduced (dominant rats): 3 weeks
CCCC(CCC)C(=O)[O-].[Na+] [VPA, sodium valproate] |  |  |  |  |  | treatment time after which dominant behavior was significantly reduced (dominant rats): 1 weeks
Nc1nnc(-c2cccc(Cl)c2Cl)c(N)n1 [LTG, lamotrigine] |  |  |  |  |  | protection against hippocampal kindled seizures [3]: unable to protect against hippocampal kindled seizures; effect on kindling during acquisition phase [4]: no effect on kindling itself; ED50, amygdala kindled seizures ([5]; Cl=4-50 mg/kg): 25 mg/kg; ADD reduced by [5]: 62%; amygdala kindled seizure score [5]: ~2
CCC1(C)CC(=O)NC1=O (centres unmarked) [Ethosuximide] | 250 mg/kg | 78 ± 13% of control | 5 ± 0 | ineffective | 189 mg/kg | 
O=C1NC(=O)C(c2ccccc2)(c2ccccc2)N1 [Phenytoin] | 150 mg/kg | 209 ± 43% of control | 4.3 ± 0.3 | suppressed seizure activity, but at doses associated with toxicity | 15 mg/kg | 
NS(=O)(=O)NCc1csc2ccccc12 [Compound #1, N-(benzo[b]thien-3-ylmethyl)-sulfamide] |  |  |  |  | 100 mg/kg | treatment time after which reduction of dominant behavior was statistically significant (dominant rats; 1.25 mg/kg p.o. BID, p<0.05): 2 weeks; reduction of dominant behavior (dominance level) (dominant rats; p.o. BID 1.25, 6, 30, 60 mg/kg, FIG. 1): reduced dominant behavior in a dose-dependent manner; treatment time after which reduction of submissive behavior was statistically significant (submissive rats; 30 mg/kg p.o. twice a day, p<0.05): 5 weeks; treatment time after which reduction of submissive behavior was statistically significant (submissive rats; 60 mg/kg p.o. twice a day, p<0.01): 17 days; reduction of submissive behavior (antidepressant) (submissive rats; p.o. twice a day for 5 weeks, 6, 30, 60 mg/kg): reduced submissive behavior (antidepressant) in a dose-dependent manner; seizure score at the conclusion of the drug- and stimulus-free period versus vehicle ([6]; 100 mg/kg i.p. during acquisition, re-challenged in the absence of drug): remained significantly lower; acquisition of the fully generalized kindled seizure ([6]; 100 mg/kg i.p., FIG. 4): prevented the acquisition of the fully generalized kindled seizure; rats protected ([7]; n=11): Five out of eleven; seizure score after treatment ([7]; reduced from a 5): 3.1
CCCC(CCC)C(=O)O [Valproic acid] | 350 mg/kg | 3 ± 1.4% of control | 0.3 ± 0.3 | suppressed seizure activity, but at doses associated with toxicity | 316 mg/kg | dose giving protection similar to Compound #1 (toxic doses) ([1]; rat, in vivo): > 300 mg/kg
